US20240255506A1, “PAIRED-CELL PROFILING SYSTEMS FOR HIGH-THROUGHPUT SCREENING SYNCYTIUM FORMATION” (priority 2023, published 2024)

What was measured:
[1] = test system: SARS-COV-2 spike-induced syncytium formation in A549-ACE2 cells; assay type: cell-based; settings: A549-ACE2-GFP1-10 receiver cells, HEK293T-GFP-11 sender cells expressing WT D614G spike; drugs added 3 h after seeding, imaged after 24 h; vs DMSO-treated control
[2] = test system: SARS-COV-2 spike-induced syncytium formation in Vero E6 cells; assay type: cell-based; settings: Vero E6-GFP1-10 receiver cells, HEK293T-GFP-11 sender cells expressing WT D614G spike; drugs added 3 h after seeding, imaged after 24 h; vs DMSO-treated control
[3] = test system: SARS-COV-2 D614G live virus; assay type: cell-based; settings: Vero E6 and Vero E6-TMPRSS2 GFP1-10/GFP11 cells; CPZ 16 μM, promethazine 12.5 μM, fluvoxamine 12.5 μM, 24 h
SARS-COV-2 D614G virus = assay type: cell-based; settings: both cell lysate and supernatant samples after virus infection; Vero E6, Vero E6-TMPRSS2 and A549-ACE2 cells
SARS-COV-2 D614G = settings: hamster, in vivo; for infectious SARS-COV-2 titer in lung tissues (plaque assay) / virus RdRp gene expression level in lung tissues: ip

SMILES | syncytium formation [1] | syncytium formation [2] | syncytium formation in SARS-COV-2 D614G-infected cells [3] | expression levels of SARS-COV-2 RNA-dependent RNA polymerase (RdRp) (SARS-COV-2 D614G virus) | area of positivity of the SARS-COV-2 nucleocapsid protein in lung tissues (SARS-COV-2 D614G) | body weight of the hamsters (SARS-COV-2 D614G) | syncytium-like multinucleated cells within SARS-COV-2 nucleocapsid-positively stained lung tissues (SARS-COV-2 D614G) | infectious SARS-COV-2 titer in lung tissues (plaque assay) (SARS-COV-2 D614G) | virus RdRp gene expression level in lung tissues (SARS-COV-2 D614G)
CN(C)CCCN1c2ccccc2Sc2ccc(Cl)cc21 [chlorpromazine] | greatly impeded syncytium formation | greatly impeded syncytium formation | inhibited syncytium formation | greatly reduced | reduced | no significant change | less syncytium-like multinucleated cells were detected | reduced | reduced
COCCCC/C(=N\OCCN)c1ccc(C(F)(F)F)cc1 [fluvoxamine] | greatly impeded syncytium formation | greatly impeded syncytium formation | inhibited syncytium formation | greatly reduced | reduced | no significant change | less syncytium-like multinucleated cells were detected | reduced | reduced
CC(CN1c2ccccc2Sc2ccccc21)N(C)C (stereo not shown) [promethazine] | greatly impeded syncytium formation | greatly impeded syncytium formation | inhibited syncytium formation | greatly reduced | – | – | – | – | –
